Data reported in PubChem BioAssay (NCI).
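Step 1: Grow cells in 96-well plates. Step 2: Expose to compound for 48 hours at 5 concentrations. Step 3: Interpolate endpoints linearly; if unreached, use highest concentration. GI50 marks 50% less growth. TGI is the concentration that stops growth completely.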

Tests used:
Test in all cases: NCI tumour cell line growth inhibition, 48 h
A498 renal = test system: A498 renal
COLO 205 colon = test system: COLO 205 colon
HT29 colon = test system: HT29 colon
NCI-H23 lung = test system: NCI-H23 lung
RPMI-8226 leukemia = test system: RPMI-8226 leukemia
SNB-75 CNS = test system: SNB-75 CNS
SW-620 colon = test system: SW-620 colon
U251 CNS = test system: U251 CNS
SR leukemia = test system: SR leukemia
NCI/ADR-RES ovarian = test system: NCI/ADR-RES ovarian

Row | SMILES | TGI (A498 renal) | TGI (COLO 205 colon) | TGI (HT29 colon) | TGI (NCI-H23 lung) | TGI (RPMI-8226 leukemia) | TGI (SNB-75 CNS) | TGI (SW-620 colon) | TGI (U251 CNS) | TGI (SR leukemia) | TGI (NCI/ADR-RES ovarian) | GI50 (A498 renal) | GI50 (COLO 205 colon) | GI50 (HT29 colon) | GI50 (NCI-H23 lung) | GI50 (SNB-75 CNS) | GI50 (SR leukemia) | GI50 (SW-620 colon) | GI50 (U251 CNS)
1 | CCOc1ccccc1NC(=O)C1=C(C)NC(C)=C(C(=O)Nc2ccccc2OCC)C1c1ccc(NC(C)=O)cc1 | 88.9 µM | 41.1 µM | > 100 µM | > 100 µM | > 100 µM | 65.6 µM | > 100 µM | > 100 µM | – | – | – | – | – | – | – | – | – | –
2 | CC1=Nn2c(nnc2-c2ccc(N)cc2)NC(C)(C)C1 | > 100 µM | > 100 µM | > 100 µM | > 100 µM | > 100 µM | – | > 100 µM | > 100 µM | – | – | – | – | – | – | – | – | – | –
3 | COc1cc(/C=C2/C(=O)NC(Cc3cc(OC)c(OC)c(C)c3OC)C(=O)N2Cc2ccccc2)c(OC)c(C)c1OC (stereo unspecified) | > 100 µM | 35 µM | > 100 µM | > 100 µM | 91.4 µM | > 100 µM | > 100 µM | > 100 µM | 54.1 µM | – | – | – | – | – | – | – | – | –
4 | Cc1cc(=O)oc2cc(OCc3nc4ccccc4c(=O)[nH]3)ccc12 | > 100 µM | > 100 µM | > 100 µM | > 100 µM | > 100 µM | > 100 µM | > 100 µM | > 100 µM | – | – | – | – | – | – | – | – | – | –
5 | COc1cc2cccc(NC(=O)c3cc(OC)c(OC)c(OC)c3Br)c2cc1OC | > 100 µM | 26.6 µM | 71.9 µM | 34.4 µM | 17 µM | 74.8 µM | 71 µM | 78.9 µM | – | – | – | – | – | – | – | – | – | –
6 | CS/C(c1ccccc1)=[N+](/C)[O-] | > 100 µM | > 61.5 µM | > 100 µM | > 100 µM | > 87.1 µM | > 100 µM | > 100 µM | > 100 µM | 47.6 µM | – | – | – | – | – | – | – | – | –
7 | O=C1C[C@H]2CC3(CC[C@H]2CN1)OCCO3 | > 100 µM | > 100 µM | > 100 µM | > 100 µM | > 100 µM | > 100 µM | > 100 µM | > 100 µM | – | – | – | – | – | – | – | – | – | –
8 | Cc1ccc(C2=C(c3ccccc3)C(Br)(c3ccccc3)C(c3ccccc3)=C2c2ccc(C)cc2)cc1 | > 100 µM | > 100 µM | > 100 µM | > 100 µM | > 100 µM | > 100 µM | > 100 µM | > 100 µM | – | – | – | – | – | – | – | – | – | –
9 | COC(=O)C(CC(=O)Nc1ccc(Cl)c(Cl)c1)C(=O)C(=O)NC1C2CC3CC(C2)CC1C3 (stereo unspecified) | > 100 µM | > 100 µM | > 100 µM | > 100 µM | > 100 µM | – | > 100 µM | > 100 µM | > 100 µM | – | – | – | – | – | – | – | – | –
10 | Cn1c(=O)c(C(=O)NC(=O)OCc2ccccc2)cn(CCSCCOC(=O)NCCCCCCNC(=O)OCCSCCn2cc(C(=O)NC(=O)OCc3ccccc3)c(=O)n(C)c2=O)c1=O | > 100 µM | > 100 µM | – | > 100 µM | > 100 µM | 48.9 µM | > 100 µM | > 100 µM | – | – | – | – | – | – | – | – | – | –
11 | CC(C)CCc1c(Cl)nc(Cl)nc1Cl | – | – | 28.9 µM | – | > 100 µM | 22.3 µM | > 100 µM | 24.4 µM | – | > 100 µM | – | – | – | – | – | – | – | –
12 | Cc1ccc(N2C(=O)/C(=C/c3ccc(N(CCC#N)CCC#N)cc3C)N=C2c2cc([N+](=O)[O-])ccc2Cl)cc1 | > 100 µM | > 100 µM | > 100 µM | > 100 µM | > 100 µM | > 100 µM | > 100 µM | > 100 µM | > 100 µM | – | – | – | – | – | – | – | – | –
13 | C[CH2][Sn]([CH2]C)([O]C(=O)c1cccc(F)c1)[O][Sn]([CH2]C)([CH2]C)[O]C(=O)c1cccc(F)c1 | 30.2 µM | 32.2 µM | > 100 µM | 30.8 µM | – | 31.9 µM | 30.9 µM | 30.6 µM | > 100 µM | – | 16.5 µM | 18.3 µM | 35.4 µM | 16.6 µM | 16.9 µM | 28 µM | 17.2 µM | 16.9 µM
14 | Cc1ccc(/C=C2\CCCC\C2=N\O)cc1 | > 100 µM | > 100 µM | > 100 µM | > 100 µM | – | 81.3 µM | > 100 µM | > 100 µM | – | – | – | – | – | – | – | – | – | –
15 | CC12CC3CC(C1)CC(N=[N+]=[N-])(C3)C2 | > 100 µM | > 100 µM | > 100 µM | > 100 µM | > 100 µM | > 100 µM | > 100 µM | > 100 µM | – | – | – | – | – | – | – | – | – | –
16 | O=C(/C=C1/NC(=O)CS1)Nc1ccccc1 | > 100 µM | > 100 µM | > 100 µM | > 100 µM | > 100 µM | > 100 µM | > 100 µM | > 100 µM | – | – | – | – | – | – | – | – | – | –
17 | O=C1C[C@@H]2CCCC[C@@H]2C12SCCS2 | > 100 µM | > 100 µM | – | > 100 µM | > 100 µM | > 100 µM | > 100 µM | > 100 µM | – | – | – | – | – | – | – | – | – | –
